Measured values taken from ChEMBL document CHEMBL1150976, “The selectivity of protein kinase inhibitors: a further update” (Biochem J, 2007).

Assays:
[1] = molecular target: T1, Serine/threonine-protein kinase D1 (Homo sapiens) (UniProt Q15139); assay: Percentage PKD1 activity remaining in the presence of 0.01uM inhibitor
T1 sequence (whole entry): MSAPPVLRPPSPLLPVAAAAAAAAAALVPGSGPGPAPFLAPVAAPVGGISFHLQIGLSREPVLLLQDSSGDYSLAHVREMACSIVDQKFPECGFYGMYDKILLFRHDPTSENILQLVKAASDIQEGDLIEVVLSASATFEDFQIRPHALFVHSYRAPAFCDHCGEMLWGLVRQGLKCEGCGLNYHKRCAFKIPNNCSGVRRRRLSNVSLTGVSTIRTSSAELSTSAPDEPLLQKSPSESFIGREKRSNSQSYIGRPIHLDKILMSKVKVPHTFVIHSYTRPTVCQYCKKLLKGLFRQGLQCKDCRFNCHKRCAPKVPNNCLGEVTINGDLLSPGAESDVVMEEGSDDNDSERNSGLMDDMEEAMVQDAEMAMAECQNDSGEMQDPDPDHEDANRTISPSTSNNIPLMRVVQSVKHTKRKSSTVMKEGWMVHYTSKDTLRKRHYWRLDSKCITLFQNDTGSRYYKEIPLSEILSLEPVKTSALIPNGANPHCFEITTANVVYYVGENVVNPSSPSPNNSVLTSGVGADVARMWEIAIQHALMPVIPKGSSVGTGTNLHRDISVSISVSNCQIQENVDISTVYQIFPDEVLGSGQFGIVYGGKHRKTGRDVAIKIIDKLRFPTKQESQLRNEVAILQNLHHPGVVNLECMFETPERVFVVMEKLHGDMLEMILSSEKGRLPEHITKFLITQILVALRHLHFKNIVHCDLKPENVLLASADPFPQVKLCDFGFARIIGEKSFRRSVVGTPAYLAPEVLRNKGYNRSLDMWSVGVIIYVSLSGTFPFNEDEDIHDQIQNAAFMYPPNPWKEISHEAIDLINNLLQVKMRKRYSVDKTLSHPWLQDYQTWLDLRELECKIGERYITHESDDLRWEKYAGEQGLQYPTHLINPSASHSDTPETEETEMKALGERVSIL

[2] = molecular target: Serine/threonine-protein kinase pim-3 (Homo sapiens, UniProt Q86V86); assay: Percentage PIM3 activity remaining in the presence of 0.01uM inhibitor
[3] = molecular target: Calcium/calmodulin-dependent protein kinase kinase 2 (Homo sapiens) (UniProt Q96RR4); assay: Percentage CaMKKbeta activity remaining in the presence of 0.01uM inhibitor
Chain of Calcium/calmodulin-dependent protein kinase kinase 2 (Homo sapiens) (Q96RR4 2-588 limits assumed): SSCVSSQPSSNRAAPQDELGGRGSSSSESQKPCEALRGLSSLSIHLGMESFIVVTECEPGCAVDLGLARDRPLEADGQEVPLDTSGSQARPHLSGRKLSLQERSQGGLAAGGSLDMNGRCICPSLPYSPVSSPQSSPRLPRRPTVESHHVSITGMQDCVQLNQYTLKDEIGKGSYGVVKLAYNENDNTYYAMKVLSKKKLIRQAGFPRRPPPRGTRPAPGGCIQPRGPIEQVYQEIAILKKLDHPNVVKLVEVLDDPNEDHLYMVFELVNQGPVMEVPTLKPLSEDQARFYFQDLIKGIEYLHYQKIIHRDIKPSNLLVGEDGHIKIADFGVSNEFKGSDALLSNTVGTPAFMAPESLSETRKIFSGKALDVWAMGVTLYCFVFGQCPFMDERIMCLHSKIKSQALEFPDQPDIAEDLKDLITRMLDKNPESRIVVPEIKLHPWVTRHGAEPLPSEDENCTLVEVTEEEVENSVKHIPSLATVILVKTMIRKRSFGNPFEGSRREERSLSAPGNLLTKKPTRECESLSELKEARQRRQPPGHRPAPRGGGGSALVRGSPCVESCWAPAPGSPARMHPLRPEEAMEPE

[4] = molecular target: Dual specificity tyrosine-phosphorylation-regulated kinase 1A (Homo sapiens) (UniProt Q13627); assay: Percentage DYRK1A activity remaining in the presence of 0.01uM inhibitor
Rattus norvegicus = species: Rattus norvegicus; assay: Percentage AMPK activity remaining in the presence of 0.01uM inhibitor
[5] = molecular target: Ribosomal protein S6 kinase alpha-5 (Homo sapiens) (UniProt O75582); assay: Percentage MSK1 activity remaining in the presence of 0.01uM inhibitor
Chain of Ribosomal protein S6 kinase alpha-5 (Homo sapiens) (O75582 whole entry, looked up): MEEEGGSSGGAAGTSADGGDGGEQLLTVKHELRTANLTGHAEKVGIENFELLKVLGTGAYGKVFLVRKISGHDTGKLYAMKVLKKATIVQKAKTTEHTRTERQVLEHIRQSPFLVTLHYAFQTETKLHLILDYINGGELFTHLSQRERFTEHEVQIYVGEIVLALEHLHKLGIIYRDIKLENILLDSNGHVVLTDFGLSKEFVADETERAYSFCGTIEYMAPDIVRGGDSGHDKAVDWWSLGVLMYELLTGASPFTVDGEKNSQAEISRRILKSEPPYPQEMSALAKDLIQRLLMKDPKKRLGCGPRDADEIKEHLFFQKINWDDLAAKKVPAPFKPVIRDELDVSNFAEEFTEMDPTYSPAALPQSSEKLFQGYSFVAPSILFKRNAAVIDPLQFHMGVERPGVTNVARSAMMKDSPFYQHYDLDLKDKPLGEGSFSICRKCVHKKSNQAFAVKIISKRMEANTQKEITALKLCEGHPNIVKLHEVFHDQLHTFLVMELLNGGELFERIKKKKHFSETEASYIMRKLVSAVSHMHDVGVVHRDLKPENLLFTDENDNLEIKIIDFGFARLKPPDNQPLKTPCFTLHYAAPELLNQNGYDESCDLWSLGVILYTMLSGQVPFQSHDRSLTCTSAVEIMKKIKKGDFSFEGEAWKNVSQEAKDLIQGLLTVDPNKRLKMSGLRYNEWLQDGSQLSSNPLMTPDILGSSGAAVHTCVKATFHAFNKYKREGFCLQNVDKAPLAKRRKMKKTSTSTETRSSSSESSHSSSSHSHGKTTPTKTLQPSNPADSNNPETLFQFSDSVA

[6] = molecular target: MAP kinase-interacting serine/threonine-protein kinase 1 (Homo sapiens) (UniProt Q9BUB5); assay: Percentage MNK1 activity remaining in the presence of 0.01uM inhibitor
Chain of MAP kinase-interacting serine/threonine-protein kinase 1 (Homo sapiens) (Q9BUB5 whole entry, looked up): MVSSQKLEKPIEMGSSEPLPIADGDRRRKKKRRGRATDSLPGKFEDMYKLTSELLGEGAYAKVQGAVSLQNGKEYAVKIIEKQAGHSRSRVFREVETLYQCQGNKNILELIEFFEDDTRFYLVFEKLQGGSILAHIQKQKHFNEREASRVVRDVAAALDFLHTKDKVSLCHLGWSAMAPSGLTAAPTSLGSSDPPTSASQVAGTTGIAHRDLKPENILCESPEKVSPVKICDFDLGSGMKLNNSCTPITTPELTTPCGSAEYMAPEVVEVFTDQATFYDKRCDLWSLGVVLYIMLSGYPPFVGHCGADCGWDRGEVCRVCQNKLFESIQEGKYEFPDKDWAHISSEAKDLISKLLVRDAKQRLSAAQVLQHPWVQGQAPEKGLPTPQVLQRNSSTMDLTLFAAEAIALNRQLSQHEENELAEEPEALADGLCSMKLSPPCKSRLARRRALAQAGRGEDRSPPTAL

[7] = molecular target: T2, Eukaryotic elongation factor 2 kinase (Homo sapiens) (UniProt O00418); assay: Percentage EF2K activity remaining in the presence of 0.01uM inhibitor
T2 sequence (whole entry): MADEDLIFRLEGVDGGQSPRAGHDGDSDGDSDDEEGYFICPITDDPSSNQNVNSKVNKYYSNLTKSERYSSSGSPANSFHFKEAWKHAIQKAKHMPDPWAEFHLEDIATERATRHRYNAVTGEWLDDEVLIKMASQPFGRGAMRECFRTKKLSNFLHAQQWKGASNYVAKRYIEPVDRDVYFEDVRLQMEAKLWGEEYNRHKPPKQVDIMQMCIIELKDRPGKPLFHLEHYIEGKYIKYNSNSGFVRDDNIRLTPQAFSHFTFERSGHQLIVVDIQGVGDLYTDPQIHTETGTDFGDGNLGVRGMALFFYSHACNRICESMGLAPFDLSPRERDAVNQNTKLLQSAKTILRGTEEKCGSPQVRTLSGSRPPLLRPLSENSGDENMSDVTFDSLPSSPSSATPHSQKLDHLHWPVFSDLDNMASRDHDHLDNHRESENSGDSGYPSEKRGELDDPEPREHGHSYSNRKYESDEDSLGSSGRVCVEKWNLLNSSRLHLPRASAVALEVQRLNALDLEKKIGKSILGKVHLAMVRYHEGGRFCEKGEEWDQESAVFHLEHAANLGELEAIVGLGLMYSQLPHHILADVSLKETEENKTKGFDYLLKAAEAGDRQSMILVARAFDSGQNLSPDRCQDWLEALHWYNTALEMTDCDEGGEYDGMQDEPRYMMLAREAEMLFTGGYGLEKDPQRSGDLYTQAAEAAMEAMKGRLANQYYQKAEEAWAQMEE

[8] = molecular target: Tyrosine-protein kinase CSK (Homo sapiens, UniProt P41240); assay: Percentage CSK activity remaining in the presence of 0.01uM inhibitor
Chain of Tyrosine-protein kinase CSK (P41240 2-450 limits assumed): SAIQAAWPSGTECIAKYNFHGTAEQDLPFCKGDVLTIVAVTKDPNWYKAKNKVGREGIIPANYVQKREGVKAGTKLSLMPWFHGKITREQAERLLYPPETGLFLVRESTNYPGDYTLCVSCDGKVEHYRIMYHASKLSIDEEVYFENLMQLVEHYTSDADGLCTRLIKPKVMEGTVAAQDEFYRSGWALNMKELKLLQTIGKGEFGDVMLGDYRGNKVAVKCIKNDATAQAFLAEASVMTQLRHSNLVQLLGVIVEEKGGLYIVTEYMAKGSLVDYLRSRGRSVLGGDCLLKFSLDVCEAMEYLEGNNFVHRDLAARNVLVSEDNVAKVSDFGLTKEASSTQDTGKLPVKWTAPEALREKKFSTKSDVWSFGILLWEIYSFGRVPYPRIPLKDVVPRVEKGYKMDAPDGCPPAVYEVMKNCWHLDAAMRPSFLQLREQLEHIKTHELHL

[9] = molecular target: T3, Serine/threonine-protein kinase BRSK2 (Homo sapiens) (UniProt Q8IWQ3); assay: Percentage BRSK2 activity remaining in the presence of 0.01uM inhibitor
T3 sequence (whole entry): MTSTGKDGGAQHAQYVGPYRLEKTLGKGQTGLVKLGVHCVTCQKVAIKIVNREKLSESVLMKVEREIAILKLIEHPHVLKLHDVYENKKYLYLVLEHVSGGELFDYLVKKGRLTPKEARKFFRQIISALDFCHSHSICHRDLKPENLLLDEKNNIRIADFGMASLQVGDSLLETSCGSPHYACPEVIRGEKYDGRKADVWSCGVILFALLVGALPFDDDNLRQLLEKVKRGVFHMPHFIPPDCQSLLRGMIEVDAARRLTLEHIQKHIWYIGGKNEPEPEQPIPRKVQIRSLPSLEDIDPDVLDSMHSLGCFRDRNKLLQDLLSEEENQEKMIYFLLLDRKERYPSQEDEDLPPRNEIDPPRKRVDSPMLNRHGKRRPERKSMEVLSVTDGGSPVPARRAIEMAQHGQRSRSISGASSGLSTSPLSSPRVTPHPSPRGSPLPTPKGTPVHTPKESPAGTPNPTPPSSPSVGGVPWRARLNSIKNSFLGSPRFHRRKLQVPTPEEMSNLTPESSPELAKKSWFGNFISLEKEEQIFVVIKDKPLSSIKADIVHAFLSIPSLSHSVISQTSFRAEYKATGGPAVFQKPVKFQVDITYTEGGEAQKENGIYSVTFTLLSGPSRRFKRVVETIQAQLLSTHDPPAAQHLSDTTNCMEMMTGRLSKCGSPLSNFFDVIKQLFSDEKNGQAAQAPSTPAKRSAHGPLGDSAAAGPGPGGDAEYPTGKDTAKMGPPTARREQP

[10] = molecular target: Proto-oncogene tyrosine-protein kinase Src (Gallus gallus) (UniProt P00523); assay: Percentage Src activity remaining in the presence of 0.01uM inhibitor
[11] = molecular target: Serine/threonine-protein kinase PAK 5 (Homo sapiens) (UniProt Q9P286); assay: Percentage PAK5 activity remaining in the presence of 0.01uM inhibitor
Chain of Serine/threonine-protein kinase PAK 5 (Homo sapiens) (Q9P286 whole entry, looked up): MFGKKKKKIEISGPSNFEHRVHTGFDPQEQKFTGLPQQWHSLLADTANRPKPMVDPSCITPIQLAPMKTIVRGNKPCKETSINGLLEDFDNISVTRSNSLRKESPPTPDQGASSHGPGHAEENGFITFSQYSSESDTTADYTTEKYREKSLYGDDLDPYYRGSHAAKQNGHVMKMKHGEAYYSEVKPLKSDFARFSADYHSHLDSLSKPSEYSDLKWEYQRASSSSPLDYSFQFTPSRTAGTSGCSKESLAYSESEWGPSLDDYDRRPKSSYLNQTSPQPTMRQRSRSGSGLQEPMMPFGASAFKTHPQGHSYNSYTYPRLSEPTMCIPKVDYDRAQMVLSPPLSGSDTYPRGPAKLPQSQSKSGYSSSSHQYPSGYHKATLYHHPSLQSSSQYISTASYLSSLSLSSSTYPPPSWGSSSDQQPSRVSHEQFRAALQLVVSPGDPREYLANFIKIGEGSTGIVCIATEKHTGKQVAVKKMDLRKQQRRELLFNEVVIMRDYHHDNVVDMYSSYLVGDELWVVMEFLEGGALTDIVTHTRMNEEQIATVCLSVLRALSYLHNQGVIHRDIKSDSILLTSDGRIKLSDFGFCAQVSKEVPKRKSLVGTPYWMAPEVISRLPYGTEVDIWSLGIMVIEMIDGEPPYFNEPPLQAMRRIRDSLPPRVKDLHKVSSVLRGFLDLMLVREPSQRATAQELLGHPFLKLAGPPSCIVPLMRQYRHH

| SMILES | Activity [1] [%] | Activity [2] [%] | Activity [3] [%] | Activity ([4]; filed as antagonist) [%] | Activity (Rattus norvegicus) [%] | Activity ([5]; filed as antagonist) [%] | Activity [6] [%] | Activity [7] [%] | Activity [8] [%] | Activity [9] [%] | Activity [10] [%] | Activity [11] [%] | Activity ([2]; filed as antagonist) [%] | Activity ([3]; filed as antagonist) [%] | Activity [4] [%] | Activity (Rattus norvegicus; filed as antagonist) [%] | Activity [5] [%] | Activity ([9]; filed as antagonist) [%] | Activity ([11]; filed as antagonist) [%] |
| --- | --- | --- | --- | --- | --- | --- | --- | --- | --- | --- | --- | --- | --- | --- | --- | --- | --- | --- | --- |
| Cc1n[nH]c2ccc(-c3cncc(OC[C@@H](N)Cc4c[nH]c5ccccc45)c3)cc12 | 63 | 54 | 83 | 10 | 84 | 19 | 120 | 93 | 99 | 88 | 91 | 104 | – | – | – | – | – | – | – |
| CN[C@@H]1C[C@H]2O[C@@](C)([C@@H]1OC)n1c3ccccc3c3c4c(c5c6ccccc6n2c5c31)C(=O)N[C@H]4O (stereo in doubt) | 83 | – | – | – | – | – | 85 | 105 | 80 | – | 76 | – | 8 | 21 | 90 | 9 | 68 | 27 | 36 |
| O=C(NCCCNc1nc(Nc2cccc(NC(=O)N3CCCC3)c2)ncc1I)c1cccs1 | 84 | 96 | 82 | – | 52 | – | 80 | 98 | 114 | 92 | 90 | 97 | – | – | 94 | – | 88 | – | – |
